Results taken from ChEMBL document CHEMBL1949550, “Pre-microRNA binding aminoglycosides and antitumor drugs as inhibitors of Dicer catalyzed microRNA processing” (Bioorg Med Chem Lett, 2012).
Activity calls are given as the source filed them. The calls are words filed in the database; no cut-off is given here. *1 amine or outer side, *2 acyl side, *3 side chain or, on linkers, in order; H or OH if unused. Where a SMILES comes first, the peptide text is derived from it. Bridges are numbered along the chain shown (N, C = ends). Roman numbers before positions name the chains, in order. [ ]: non-standard residue; d: D form. Actinocin(9to1) = Cc1c2oc3c(C)ccc(C(=O)[*:1])c3nc-2c(C(=O)[*:2])c(N)c1=O; NMeV = CN[C@H](C(=O)O)C(C)C; Sar = CNCC(=O)O

Key:
Nucleic Acid [1] = test: Displacement of ethidium bromide from human pre-hsa-mir-155 miRNA after 30 mins; assay type: nucleic-acid assay
[2] = Aqueous solubility of the compound; assay type: physicochemical; settings: buffer
Nucleic Acid [3] = test: Binding affinity to human pre-hsa-mir-155 miRNA assessed as increase in fluorescence after 30 mins by fluorimetry; assay type: nucleic-acid assay
Nucleic Acid [4] = test: Binding affinity to human pre-hsa-mir-155 miRNA assessed as inhibition of dicer-catalysed (33P)-labelled pre-miRNA processing at 1 mM after 1 hr by PAGE analysis; assay type: nucleic-acid assay; settings: for residual activity: values are per cent of control
Nucleic Acid [5] = test: Binding affinity to human pre-hsa-mir-155 miRNA assessed as increase in melting temperature; assay type: nucleic-acid assay
Nucleic Acid [6] = test: Binding affinity to human pre-hsa-mir-155 miRNA assessed as melting temperature at 12 uM (reference value: 48 degC); assay type: nucleic-acid assay
Nucleic Acid [7] = test: Binding affinity to human pre-hsa-mir-155 miRNA assessed as melting temperature at 10 uM (reference value: 48 degC); assay type: nucleic-acid assay
Nucleic Acid [8] = test: Binding affinity to human pre-hsa-mir-155 miRNA assessed as melting temperature at 2 uM (reference value: 48 degC); assay type: nucleic-acid assay
Nucleic Acid [9] = test: Binding affinity to human pre-hsa-mir-155 miRNA assessed as melting temperature at 112 uM (reference value: 48 degC); assay type: nucleic-acid assay

CCO.C[C@H]1c2cccc(O)c2C(=O)C2=C(O)[C@]3(O)C(=O)C(C(N)=O)=C(O)[C@@H](N(C)C)[C@@H]3[C@@H](O)[C@@H]21.Cl.O
Activity (Nucleic Acid [1]): inactive | solubility [2]: soluble

CN1CCN(c2ccc3[nH]c(-c4ccc5[nH]c(-c6ccc(O)cc6)nc5c4)nc3c2)CC1
Kd (Nucleic Acid [3]): 14 µM | residual activity (Nucleic Acid [4]): 40%

Cc1c2c(c(O)c3c(O)cccc13)C(=O)[C@]1(O)C(=O)C(C(N)=O)=C(O)[C@H](N(C)C)[C@@H]1C2.Cl
Activity (Nucleic Acid [1]): inactive | solubility [2]: soluble

Cc1c2c(c(O)c3c(O)ccc(Cl)c13)C(=O)[C@]1(O)C(=O)C(C(N)=O)=C(O)[C@H](N(C)C)[C@@H]1C2.Cl
Activity (Nucleic Acid [1]): inactive | solubility [2]: soluble

CCN(CC)CCCC(C)Nc1c2ccc(Cl)cc2nc2ccc(OC)cc12 (stereo unspecified)
inhibition (Nucleic Acid [4]): inactive

CN(C)[C@@H]1C(O)=C(C(N)=O)C(=O)[C@@]2(O)C(O)=C3C(=O)c4c(O)cccc4[C@@](C)(O)[C@H]3C[C@@H]12
Activity (Nucleic Acid [1]): inactive

CN(C)[C@H]1C(O)=C(C(N)=O)C(=O)[C@@]2(O)C(O)=C3C(=O)c4c(O)ccc(Cl)c4[C@@](C)(O)[C@H]3C[C@@H]12
Activity (Nucleic Acid [1]): inactive

CN(C)[C@H]1C(O)=C(C(N)=O)C(=O)[C@@]2(O)C(O)=C3C(=O)c4c(O)cccc4[C@@](C)(O)[C@H]3C[C@@H]12
Activity (Nucleic Acid [1]): inactive

CN(C)c1ccc(O)c2c1C[C@H]1C[C@H]3[C@H](N(C)C)C(O)=C(C(N)=O)C(=O)[C@@]3(O)C(O)=C1C2=O
Activity (Nucleic Acid [1]): inactive

CN[C@@H]1[C@@H](O[C@H]2O[C@H](CO)[C@@H](N)[C@H](O)[C@H]2O)OC2C[C@@H](N)[C@@H](O[C@H]3[C@H](O)[C@@H](O)[C@H](N)C[C@@H]3N)OC2[C@@H]1O (stereo partly specified)
residual activity (Nucleic Acid [4]): 10%

CN[C@H](CC(C)C)C(=O)N[C@H]1C(=O)N[C@@H](CC(N)=O)C(=O)N[C@H]2C(=O)N[C@H]3C(=O)N[C@H](C(=O)N[C@H](C(=O)O)c4cc(O)cc(O)c4-c4cc3ccc4O)[C@H](O)c3ccc(c(Cl)c3)Oc3cc2cc(c3O[C@@H]2O[C@H](CO)[C@@H](O)[C@H](O)[C@H]2O[C@H]2C[C@](C)(N)[C@H](O)[C@H](C)O2)Oc2ccc(cc2Cl)[C@H]1O
inhibition (Nucleic Acid [4]): inactive

COc1ccc2cc3[n+](cc2c1OC)CCc1cc2c(cc1-3)OCO2
inhibition (Nucleic Acid [4]): inactive

COc1cccc2c1C(=O)c1c(O)c3c(c(O)c1C2=O)C[C@@](O)(C(=O)CO)C[C@@H]3O[C@H]1C[C@H](N)[C@H](O)[C@H](C)O1
residual activity (Nucleic Acid [4]): 83%

COc1cccc2c1C(=O)c1c(O)c3c(c(O)c1C2=O)C[C@@](O)(C(C)=O)C[C@@H]3O[C@H]1C[C@H](N)[C@H](O)[C@H](C)O1
residual activity (Nucleic Acid [4]): 19%

N=C(N)c1ccc(-c2cc3ccc(C(=N)N)cc3[nH]2)cc1
residual activity (Nucleic Acid [4]): 100%

Nc1ccc2cc3ccc(N)cc3nc2c1
residual activity (Nucleic Acid [4]): 93%

Cc1c2oc3c(C)ccc(C(=O)N[C@@H]4C(=O)N[C@H](C(C)C)C(=O)N5CCC[C@H]5C(=O)N(C)CC(=O)N(C)[C@@H](C(C)C)C(=O)O[C@@H]4C)c3nc-2c(C(=O)N[C@@H]2C(=O)N[C@H](C(C)C)C(=O)N3CCC[C@H]3C(=O)N(C)CC(=O)N(C)[C@@H](C(C)C)C(=O)O[C@@H]2C)c(N)c1=O (I: T[dV]P[Sar][NMeV] / II: T[dV]P[Sar][NMeV]; ester I:1-I:C, II:1-II:C; linker I:N-II:N via Actinocin(9to1))
inhibition (Nucleic Acid [4]): inactive

NC[C@@H]1O[C@H](O[C@H]2[C@@H](O)[C@H](O[C@@H]3[C@@H](O)[C@H](N)C[C@H](N)[C@H]3O[C@H]3O[C@H](CN)[C@@H](O)[C@H](O)[C@H]3N)O[C@@H]2CO)[C@H](N)[C@@H](O)[C@@H]1O (stereo in doubt; form 1)
Activity (Nucleic Acid [5]): Dose-dependent effect | Tm (Nucleic Acid [6]): > 70 °C | Tm (Nucleic Acid [7]): > 70 °C | Tm (Nucleic Acid [8]): 50 °C | residual activity (Nucleic Acid [4]): 10%

NC[C@@H]1O[C@H](O[C@H]2[C@@H](O)[C@H](O[C@@H]3[C@@H](O)[C@H](N)C[C@H](N)[C@H]3O[C@H]3O[C@H](CN)[C@@H](O)[C@H](O)[C@H]3N)O[C@@H]2CO)[C@H](N)[C@@H](O)[C@@H]1O (stereo in doubt; form 1) [FRAMYCETIN]
Kd (Nucleic Acid [1]): 6 µM

NC[C@@H]1O[C@H](O[C@H]2[C@@H](O)[C@H](O[C@@H]3[C@@H](O)[C@H](N)C[C@H](N)[C@H]3O[C@H]3O[C@H](CN)[C@@H](O)[C@H](O)[C@H]3N)O[C@@H]2CO)[C@H](N)[C@@H](O)[C@@H]1O (stereo in doubt; form 2)
Tm (Nucleic Acid [6]): > 70 °C | Tm (Nucleic Acid [8]): 48 °C | residual activity (Nucleic Acid [4]): 10%

NC[C@@H]1O[C@H](O[C@H]2[C@@H](O)[C@H](O[C@@H]3[C@@H](O)[C@H](N)C[C@H](N)[C@H]3O[C@H]3O[C@H](CN)[C@@H](O)[C@H](O)[C@H]3N)O[C@@H]2CO)[C@H](N)[C@@H](O)[C@@H]1O (stereo in doubt; form 2) [FRAMYCETIN]
Kd (Nucleic Acid [1]): 11 µM

NCC[C@H](O)C(=O)N[C@@H]1C[C@H](N)[C@@H](O[C@H]2O[C@H](CN)[C@@H](O)[C@H](O)[C@H]2O)[C@H](O)[C@H]1O[C@H]1O[C@H](CO)[C@@H](O)[C@H](N)[C@H]1O [AMIKACIN]
Kd (Nucleic Acid [1]): > 100 µM

Cc1c2c(c(O)c3c(O)cccc13)C(=O)[C@]1(O)C(=O)C(C(N)=O)=C(O)[C@@H](N(C)C)[C@@H]1C2.Cl [ANHYDROTETRACYCLINE HYDROCHLORIDE]
Activity (Nucleic Acid [1]): inactive | solubility [2]: soluble

NC[C@H]1O[C@H](O[C@H]2[C@H](O)[C@@H](O[C@H]3O[C@H](CO)[C@@H](O)[C@H](N)[C@H]3O)[C@H](N)C[C@@H]2N)[C@H](N)[C@@H](O)[C@@H]1O [BEKANAMYCIN]
Kd (Nucleic Acid [1]): 6 µM

CN(C)[C@@H]1C(O)=C(C(N)=O)C(=O)[C@@]2(O)C(O)=C3C(=O)c4c(O)ccc(Cl)c4[C@@H](O)[C@H]3C[C@@H]12.Cl [DEMECLOCYCLINE HYDROCHLORIDE]
Activity (Nucleic Acid [1]): inactive | solubility [2]: soluble

CN[C@@H]1[C@H](O[C@H]2[C@H](O[C@H]3[C@H](O)[C@@H](O)[C@H](NC(=N)N)[C@@H](O)[C@@H]3NC(=N)N)O[C@@H](C)[C@]2(O)CO)O[C@@H](CO)[C@H](O)[C@H]1O [DIHYDROSTREPTOMYCIN]
Kd (Nucleic Acid [1]): > 100 µM

CC[n+]1c(-c2ccccc2)c2cc(N)ccc2c2ccc(N)cc21 [HOMIDIUM BROMIDE]
Kd (Nucleic Acid [3]): 5 µM

NC[C@@H]1O[C@@H](O[C@H]2[C@H](O)[C@@H](O[C@H]3O[C@H](CO)[C@@H](O)[C@H](N)[C@H]3O)[C@H](N)C[C@@H]2N)[C@@H](O)[C@H](O)[C@H]1O [KANAMYCIN A]
Activity (Nucleic Acid [5]): Dose-dependent effect | Tm (Nucleic Acid [9]): > 70 °C | Tm (Nucleic Acid [6]): 64 °C | Kd (Nucleic Acid [1]): 141 µM | Tm (Nucleic Acid [8]): 55 °C

C=C1c2cccc(O)c2C(=O)C2=C(O)[C@]3(O)C(=O)C(C(N)=O)=C(O)[C@@H](N(C)C)[C@@H]3[C@@H](O)[C@H]12.Cl [METHACYCLINE HYDROCHLORIDE]
Activity (Nucleic Acid [1]): inactive | solubility [2]: soluble

CCN[C@@H]1C[C@H](N)[C@@H](O[C@H]2OC(CN)=CC[C@H]2N)[C@H](O)[C@H]1O[C@H]1OC[C@](C)(O)[C@H](NC)[C@H]1O [NETILMICIN]
Kd (Nucleic Acid [1]): > 100 µM

CN[C@@H]1[C@H](O)[C@H](NC)[C@H]2O[C@@]3(O)C(=O)C[C@@H](C)O[C@H]3O[C@@H]2[C@H]1O [SPECTINOMYCIN]
Kd (Nucleic Acid [1]): > 100 µM

NC[C@H]1O[C@H](O[C@H]2[C@H](O)[C@@H](O[C@H]3O[C@H](CO)[C@@H](O)[C@H](N)[C@H]3O)[C@H](N)C[C@@H]2N)[C@H](N)C[C@@H]1O [TOBRAMYCIN]
Kd (Nucleic Acid [1]): > 100 µM

BLEOMYCIN
inhibition (Nucleic Acid [4]): inactive

GENTAMICIN
Kd (Nucleic Acid [1]): > 100 µM
